The source made the active and inactive calls. The calls are words filed in the database; no cut-off is given here.
How the values were obtained:
Naegleria fowleri [1] = assay: Antimicrobial activity against Naegleria fowleri Lee (M67) in presence of amphotericin B at 1:3 ratio on day 3; assay type: functional
Mus musculus [2] = assay: Effect on mean time to death in Naegleria fowleri Lee (M67) infected CD1 mouse at 2.5 mg/kg, ip in presence of azithromycin; assay type: functional, organism-based; set-up: dose 2.5 mg/kg
Mus musculus [3] = assay: Effect on mortality in Naegleria fowleri Lee (M67) infected CD1 mouse at 2.5 mg/kg/day, ip; assay type: functional; settings: route intraperitoneal
Naegleria fowleri [4] = assay: Antimicrobial activity against Naegleria fowleri Lee (M67) at day 3; assay type: functional, organism-based; settings: 72 h
Naegleria fowleri [5] = assay: Antimicrobial activity against Naegleria fowleri Lee (M67) in presence of amphotericin B at 3:1 ratio on day 2; assay type: functional
Naegleria fowleri [6] = assay: Antimicrobial activity against Naegleria fowleri Lee (M67) in presence of amphotericin B at 1:1 ratio on day 2; assay type: functional
Naegleria fowleri [7] = assay: Antimicrobial activity against Naegleria fowleri Lee (M67) in presence of amphotericin B at 1:1 ratio on day 3; assay type: functional
Mus musculus [8] = assay: Effect on mortality in Naegleria fowleri Lee (M67) infected CD1 mouse at 2.5 mg/kg, ip in presence of azithromycin; assay type: functional; settings: route intraperitoneal
Naegleria fowleri [9] = assay: Antimicrobial activity against Naegleria fowleri Lee (M67) at day 2; assay type: functional, organism-based; settings: 48 h
Mus musculus [10] = assay: Effect on mean time to death in Naegleria fowleri Lee (M67) infected CD1 mouse at 2.5 mg/kg/day, ip; assay type: functional; settings: route intraperitoneal
Mus musculus [11] = assay: Protection against Naegleria fowleri Lee (M67) infection in CD1 mouse at 2.5 mg/kg, ip in presence of azithromycin; assay type: functional; settings: route intraperitoneal
Naegleria fowleri [12] = assay: Antimicrobial activity against Naegleria fowleri Lee (M67) in presence of amphotericin B at 3:1 ratio on day 3; assay type: functional
Naegleria fowleri [13] = assay: Antimicrobial activity against Naegleria fowleri Lee (M67) in presence of amphotericin B at 1:3 ratio on day 2; assay type: functional
Mus musculus [14] = assay: Protection against Naegleria fowleri Lee (M67) infection in CD1 mouse at 2.5 mg/kg/day, ip; assay type: functional; settings: route intraperitoneal
Naegleria fowleri [15] = assay: Antimicrobial activity against Naegleria fowleri Lee (M67) in presence of azithromycin at 1:3 ratio on day 2; assay type: functional
Naegleria fowleri [16] = assay: Antimicrobial activity against Naegleria fowleri Lee (M67) in presence of azithromycin at 1:1 ratio on day 2; assay type: functional
Mus musculus [17] = assay: Effect on mean time to death in Naegleria fowleri Lee (M67) infected CD1 mouse at 25 mg/kg/day, ip; assay type: functional; settings: route intraperitoneal
Naegleria fowleri [18] = assay: Antimicrobial activity against Naegleria fowleri Lee (M67) in presence of azithromycin at 1:1 ratio on day 3; assay type: functional
Naegleria fowleri [19] = assay: Antimicrobial activity against Naegleria fowleri Lee (M67) in presence of azithromycin at 3:1 ratio on day 3; assay type: functional
Mus musculus [20] = assay: Effect on mortality in Naegleria fowleri Lee (M67) infected CD1 mouse at 25 mg/kg/day, ip; assay type: functional; settings: route intraperitoneal
Naegleria fowleri [21] = assay: Antimicrobial activity against Naegleria fowleri Lee (M67) in presence of azithromycin at 3:1 ratio on day 2; assay type: functional
Mus musculus [22] = assay: Protection against Naegleria fowleri Lee (M67) infection in CD1 mouse at 25 mg/kg/day, ip; assay type: functional; settings: route intraperitoneal
Naegleria fowleri [23] = assay: Antimicrobial activity against Naegleria fowleri Lee (M67) in presence of azithromycin at 1:3 ratio on day 3; assay type: functional

C[C@@H]1[C@H](O)[C@@H](C)/C=C/C=C/C=C/C=C/C=C/C=C/C=C/[C@H](O[C@@H]2O[C@H](C)[C@@H](O)[C@H](N)[C@@H]2O)C[C@@H]2O[C@](O)(C[C@@H](O)C[C@@H](O)[C@H](O)CC[C@@H](O)C[C@@H](O)CC(=O)O[C@H]1C)C[C@H](O)[C@H]2C(=O)O [AMPHOTERICIN B]
FIC50 (Naegleria fowleri [1]): 0.167
Activity (Mus musculus [2]): Active
Activity (Mus musculus [3]): 55%
IC50 (Naegleria fowleri [4]): 18.3 nM
FIC50 (Naegleria fowleri [5]): 0.254
FIC50 (Naegleria fowleri [6]): 0.241
FIC50 (Naegleria fowleri [7]): 0.309
Activity (Mus musculus [8]): 0%
IC50 (Naegleria fowleri [9]): 26.4 nM
Activity (Mus musculus [10]): 7 days
Activity (Mus musculus [11]): 100%
FIC50 (Naegleria fowleri [12]): 0.303
FIC50 (Naegleria fowleri [13]): 0.311
Activity (Mus musculus [14]): 27%

CC[C@H]1OC(=O)[C@H](C)[C@@H](O[C@H]2C[C@@](C)(OC)[C@@H](O)[C@H](C)O2)[C@H](C)[C@@H](O[C@@H]2O[C@H](C)C[C@H](N(C)C)[C@H]2O)[C@](C)(O)C[C@@H](C)CN(C)[C@H](C)[C@@H](O)[C@]1(C)O [AZITHROMYCIN]
FIC50 (Naegleria fowleri [15]): 0.464
FIC50 (Naegleria fowleri [16]): 0.238
Activity (Mus musculus [17]): 12.4 days
IC50 (Naegleria fowleri [4]): 3.1 nM
FIC50 (Naegleria fowleri [18]): 0.308
FIC50 (Naegleria fowleri [19]): 0.103
Activity (Mus musculus [20]): 45%
IC50 (Naegleria fowleri [9]): 2.6 nM
FIC50 (Naegleria fowleri [21]): 0.088
Activity (Mus musculus [22]): 40%
FIC50 (Naegleria fowleri [23]): 0.55
